Measured values taken from publication PMC9927415, “Tyrosine Kinase Inhibitors Display Potent Activity against Cryptosporidium parvum” (Microbiology Spectrum, 2022).

Assays:
Test in all cases: KINOMEscan competitive binding
PAK4 = target: T1, PAK4 (Homo sapiens, UniProt O96013); conditions: n=1, read-out: Percent inhibition, PAK4
T1 construct: purchased DiscoverX (KINOMEscan)

PDPK1 = target: T2, PDPK1 (Homo sapiens, UniProt O15530); conditions: n=1, read-out: Percent inhibition, PDPK1
T2 construct: purchased DiscoverX (KINOMEscan)
T2 sequence (O15530 1-556): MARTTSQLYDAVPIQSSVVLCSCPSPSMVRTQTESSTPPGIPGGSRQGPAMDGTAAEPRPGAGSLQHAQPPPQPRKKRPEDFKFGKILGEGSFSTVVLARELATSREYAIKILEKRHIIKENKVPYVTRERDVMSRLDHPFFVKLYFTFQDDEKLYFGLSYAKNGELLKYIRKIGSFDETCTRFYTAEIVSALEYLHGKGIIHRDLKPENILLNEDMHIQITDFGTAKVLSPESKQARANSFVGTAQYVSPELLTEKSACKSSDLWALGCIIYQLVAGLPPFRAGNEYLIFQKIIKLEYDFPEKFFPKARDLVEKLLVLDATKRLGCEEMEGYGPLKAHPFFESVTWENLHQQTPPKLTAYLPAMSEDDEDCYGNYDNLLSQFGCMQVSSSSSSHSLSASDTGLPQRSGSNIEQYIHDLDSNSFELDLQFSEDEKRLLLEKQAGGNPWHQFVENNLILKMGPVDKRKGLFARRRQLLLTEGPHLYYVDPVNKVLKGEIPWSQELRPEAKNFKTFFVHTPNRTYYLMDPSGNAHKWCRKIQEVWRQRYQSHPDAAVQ

PRKCH = target: T3, PRKCH (Homo sapiens, UniProt P24723); conditions: n=1, read-out: Percent inhibition, PRKCH
T3 construct: purchased DiscoverX (KINOMEscan)
T3 sequence (P24723 whole entry): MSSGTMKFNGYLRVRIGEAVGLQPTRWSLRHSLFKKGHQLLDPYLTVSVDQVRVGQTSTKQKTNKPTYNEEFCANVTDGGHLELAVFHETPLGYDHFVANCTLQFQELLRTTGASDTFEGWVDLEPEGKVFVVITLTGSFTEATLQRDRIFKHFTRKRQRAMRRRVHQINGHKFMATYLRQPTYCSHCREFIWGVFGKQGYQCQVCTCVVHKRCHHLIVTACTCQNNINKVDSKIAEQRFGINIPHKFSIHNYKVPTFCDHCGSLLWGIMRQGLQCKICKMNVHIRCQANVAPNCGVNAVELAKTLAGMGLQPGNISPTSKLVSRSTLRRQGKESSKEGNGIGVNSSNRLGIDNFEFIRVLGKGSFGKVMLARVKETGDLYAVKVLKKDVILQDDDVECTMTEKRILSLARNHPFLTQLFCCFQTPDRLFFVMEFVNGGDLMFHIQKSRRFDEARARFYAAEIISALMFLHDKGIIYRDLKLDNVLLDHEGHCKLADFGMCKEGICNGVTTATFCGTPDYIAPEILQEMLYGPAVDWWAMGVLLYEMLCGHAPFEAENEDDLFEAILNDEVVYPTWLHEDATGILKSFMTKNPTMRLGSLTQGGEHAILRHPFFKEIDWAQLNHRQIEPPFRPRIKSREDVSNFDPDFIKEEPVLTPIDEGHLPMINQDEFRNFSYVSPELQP

SLK = target: T4, SLK (Homo sapiens, UniProt Q9H2G2); conditions: n=1, read-out: Percent inhibition, SLK
T4 construct: purchased DiscoverX (KINOMEscan)
T4 sequence (Q9H2G2 whole entry): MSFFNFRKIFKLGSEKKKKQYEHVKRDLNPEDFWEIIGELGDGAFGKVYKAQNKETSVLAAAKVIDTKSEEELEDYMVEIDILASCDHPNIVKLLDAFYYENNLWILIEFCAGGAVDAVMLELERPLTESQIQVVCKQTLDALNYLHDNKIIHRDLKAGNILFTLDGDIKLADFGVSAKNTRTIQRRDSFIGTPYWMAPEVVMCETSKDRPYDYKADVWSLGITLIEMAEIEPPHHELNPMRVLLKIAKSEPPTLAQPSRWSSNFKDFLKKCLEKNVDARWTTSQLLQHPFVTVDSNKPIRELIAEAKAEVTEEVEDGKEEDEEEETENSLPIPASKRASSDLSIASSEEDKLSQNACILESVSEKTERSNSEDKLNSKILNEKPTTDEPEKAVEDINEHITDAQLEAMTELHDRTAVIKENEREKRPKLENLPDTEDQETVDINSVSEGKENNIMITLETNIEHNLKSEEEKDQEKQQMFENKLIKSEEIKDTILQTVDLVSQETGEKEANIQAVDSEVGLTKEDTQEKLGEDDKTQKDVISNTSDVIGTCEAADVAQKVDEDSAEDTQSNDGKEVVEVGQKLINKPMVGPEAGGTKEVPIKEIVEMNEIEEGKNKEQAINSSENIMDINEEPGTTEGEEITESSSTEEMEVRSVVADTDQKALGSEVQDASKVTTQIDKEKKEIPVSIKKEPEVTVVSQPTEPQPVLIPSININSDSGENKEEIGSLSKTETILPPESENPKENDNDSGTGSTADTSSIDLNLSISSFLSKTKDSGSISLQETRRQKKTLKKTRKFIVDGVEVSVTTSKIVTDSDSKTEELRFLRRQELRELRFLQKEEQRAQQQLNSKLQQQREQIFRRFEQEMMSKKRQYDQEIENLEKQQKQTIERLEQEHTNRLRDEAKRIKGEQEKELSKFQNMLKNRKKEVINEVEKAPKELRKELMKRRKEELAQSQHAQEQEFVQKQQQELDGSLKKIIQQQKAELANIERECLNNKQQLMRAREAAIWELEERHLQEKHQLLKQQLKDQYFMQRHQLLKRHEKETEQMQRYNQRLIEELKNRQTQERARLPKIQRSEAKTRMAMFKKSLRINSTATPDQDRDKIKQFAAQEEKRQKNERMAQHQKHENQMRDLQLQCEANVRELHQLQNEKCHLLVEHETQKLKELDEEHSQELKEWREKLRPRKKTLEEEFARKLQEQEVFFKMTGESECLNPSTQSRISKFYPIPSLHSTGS

SNF1LK2 = target: T5, SNF1LK2 (Homo sapiens, UniProt Q9H0K1); conditions: n=1, read-out: Percent inhibition, SNF1LK2
T5 construct: purchased DiscoverX (KINOMEscan)
T5 sequence (Q9H0K1 whole entry): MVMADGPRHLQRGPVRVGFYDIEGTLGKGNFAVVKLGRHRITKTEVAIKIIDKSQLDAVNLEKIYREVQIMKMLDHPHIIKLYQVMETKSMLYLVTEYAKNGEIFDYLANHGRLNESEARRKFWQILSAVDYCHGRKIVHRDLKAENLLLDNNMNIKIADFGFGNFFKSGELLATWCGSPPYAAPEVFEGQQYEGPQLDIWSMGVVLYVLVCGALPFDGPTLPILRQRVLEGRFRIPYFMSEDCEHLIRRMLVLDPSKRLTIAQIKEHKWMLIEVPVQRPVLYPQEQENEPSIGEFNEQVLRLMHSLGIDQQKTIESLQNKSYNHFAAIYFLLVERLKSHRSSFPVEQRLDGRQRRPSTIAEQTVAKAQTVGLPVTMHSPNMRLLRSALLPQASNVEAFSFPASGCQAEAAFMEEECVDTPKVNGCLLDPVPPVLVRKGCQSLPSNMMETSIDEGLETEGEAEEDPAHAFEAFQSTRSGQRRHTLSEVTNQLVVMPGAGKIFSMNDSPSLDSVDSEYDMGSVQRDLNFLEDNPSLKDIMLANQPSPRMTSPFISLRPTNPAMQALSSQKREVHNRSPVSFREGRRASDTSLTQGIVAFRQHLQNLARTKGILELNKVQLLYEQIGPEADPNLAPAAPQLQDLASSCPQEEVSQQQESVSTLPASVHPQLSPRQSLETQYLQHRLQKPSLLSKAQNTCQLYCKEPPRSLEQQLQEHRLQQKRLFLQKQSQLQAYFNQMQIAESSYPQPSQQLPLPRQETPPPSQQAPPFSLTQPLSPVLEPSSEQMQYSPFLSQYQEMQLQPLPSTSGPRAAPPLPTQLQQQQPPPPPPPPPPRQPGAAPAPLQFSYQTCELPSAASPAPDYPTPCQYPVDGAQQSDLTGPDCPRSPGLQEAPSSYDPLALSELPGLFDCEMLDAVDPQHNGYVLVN

STK16 = target: T6, STK16 (Homo sapiens, UniProt O75716); conditions: n=1, read-out: Percent inhibition, STK16
T6 construct: purchased DiscoverX (KINOMEscan)
T6 sequence (O75716 whole entry): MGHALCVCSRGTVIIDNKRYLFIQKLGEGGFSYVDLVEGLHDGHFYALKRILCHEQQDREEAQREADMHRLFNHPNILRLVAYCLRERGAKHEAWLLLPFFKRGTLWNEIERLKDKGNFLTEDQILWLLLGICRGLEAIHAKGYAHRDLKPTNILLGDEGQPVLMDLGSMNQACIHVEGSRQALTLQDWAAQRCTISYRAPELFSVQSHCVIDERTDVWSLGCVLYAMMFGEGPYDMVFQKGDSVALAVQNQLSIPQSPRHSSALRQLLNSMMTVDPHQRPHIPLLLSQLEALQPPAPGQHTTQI

STK33 = target: T7, STK33 (Homo sapiens, UniProt Q9BYT3); conditions: n=1, read-out: Percent inhibition, STK33
T7 construct: purchased DiscoverX (KINOMEscan)
T7 sequence (Q9BYT3 whole entry): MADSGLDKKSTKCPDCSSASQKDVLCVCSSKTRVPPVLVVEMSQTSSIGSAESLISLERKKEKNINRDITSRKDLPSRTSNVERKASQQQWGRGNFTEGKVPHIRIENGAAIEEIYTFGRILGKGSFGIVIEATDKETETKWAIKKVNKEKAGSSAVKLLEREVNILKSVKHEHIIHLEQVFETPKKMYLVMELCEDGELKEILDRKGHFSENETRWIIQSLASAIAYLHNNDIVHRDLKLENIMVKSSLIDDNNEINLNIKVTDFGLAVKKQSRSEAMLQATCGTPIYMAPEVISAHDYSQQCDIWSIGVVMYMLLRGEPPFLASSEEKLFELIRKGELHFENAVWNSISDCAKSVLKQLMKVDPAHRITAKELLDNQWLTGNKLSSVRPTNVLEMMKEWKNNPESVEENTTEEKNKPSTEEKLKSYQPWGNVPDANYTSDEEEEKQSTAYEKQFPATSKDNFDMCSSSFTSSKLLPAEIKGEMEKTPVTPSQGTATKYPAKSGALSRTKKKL

SYK = target: T8, SYK (Homo sapiens, UniProt P43405); conditions: n=1, read-out: Percent inhibition, SYK
T8 construct: purchased DiscoverX (KINOMEscan)

TLK1 = target: T9, TLK1 (Homo sapiens, UniProt Q9UKI8); conditions: n=1, read-out: Percent inhibition, TLK1
T9 construct: purchased DiscoverX (KINOMEscan)
T9 sequence (Q9UKI8 1-766): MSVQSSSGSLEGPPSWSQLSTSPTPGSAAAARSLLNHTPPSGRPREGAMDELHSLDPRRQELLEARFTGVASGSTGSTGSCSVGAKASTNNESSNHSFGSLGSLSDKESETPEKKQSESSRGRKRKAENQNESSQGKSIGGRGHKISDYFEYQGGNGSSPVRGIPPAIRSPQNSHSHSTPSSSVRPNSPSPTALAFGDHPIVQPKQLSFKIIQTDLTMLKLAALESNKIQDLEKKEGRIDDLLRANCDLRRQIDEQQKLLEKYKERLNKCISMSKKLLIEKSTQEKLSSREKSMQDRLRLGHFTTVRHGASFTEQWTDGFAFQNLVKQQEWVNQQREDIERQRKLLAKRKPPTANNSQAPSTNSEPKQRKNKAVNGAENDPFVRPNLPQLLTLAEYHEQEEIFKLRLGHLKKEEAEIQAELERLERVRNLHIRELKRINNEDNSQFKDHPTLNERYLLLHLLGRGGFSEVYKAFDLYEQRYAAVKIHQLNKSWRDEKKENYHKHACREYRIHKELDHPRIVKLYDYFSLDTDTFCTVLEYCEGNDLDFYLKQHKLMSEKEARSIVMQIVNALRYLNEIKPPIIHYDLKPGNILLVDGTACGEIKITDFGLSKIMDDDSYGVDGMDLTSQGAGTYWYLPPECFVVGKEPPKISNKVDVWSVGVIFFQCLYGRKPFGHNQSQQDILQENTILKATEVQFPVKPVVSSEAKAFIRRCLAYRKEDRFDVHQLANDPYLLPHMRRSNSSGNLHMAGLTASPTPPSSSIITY

TLK2 = target: T10, TLK2 (Homo sapiens, UniProt Q86UE8); conditions: n=1, read-out: Percent inhibition, TLK2
T10 construct: purchased DiscoverX (KINOMEscan)

TRKC = target: T11, TRKC (Homo sapiens, UniProt Q16288); conditions: n=1, read-out: Percent inhibition, TRKC
T11 construct: purchased DiscoverX (KINOMEscan)
T11 sequence (Q16288 32-839): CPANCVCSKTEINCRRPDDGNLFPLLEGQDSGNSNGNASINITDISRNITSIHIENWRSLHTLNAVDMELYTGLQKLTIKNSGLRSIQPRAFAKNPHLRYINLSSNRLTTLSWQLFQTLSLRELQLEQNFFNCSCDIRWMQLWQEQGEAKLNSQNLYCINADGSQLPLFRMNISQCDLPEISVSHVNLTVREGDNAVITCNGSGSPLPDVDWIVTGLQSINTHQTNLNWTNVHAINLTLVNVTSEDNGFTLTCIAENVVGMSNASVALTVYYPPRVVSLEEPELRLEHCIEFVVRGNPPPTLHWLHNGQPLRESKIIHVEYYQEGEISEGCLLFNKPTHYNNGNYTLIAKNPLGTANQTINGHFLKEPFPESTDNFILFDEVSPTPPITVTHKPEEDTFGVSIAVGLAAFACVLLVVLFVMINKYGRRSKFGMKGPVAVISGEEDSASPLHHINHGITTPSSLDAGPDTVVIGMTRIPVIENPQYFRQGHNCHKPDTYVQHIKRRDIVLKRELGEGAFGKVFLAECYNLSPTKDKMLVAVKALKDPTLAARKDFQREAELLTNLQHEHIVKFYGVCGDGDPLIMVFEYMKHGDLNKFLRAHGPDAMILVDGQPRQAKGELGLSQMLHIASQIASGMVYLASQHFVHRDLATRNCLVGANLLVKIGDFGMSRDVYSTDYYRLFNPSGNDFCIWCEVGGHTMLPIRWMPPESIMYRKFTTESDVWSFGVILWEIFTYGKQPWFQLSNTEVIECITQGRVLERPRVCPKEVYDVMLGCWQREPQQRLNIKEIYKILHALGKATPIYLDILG

YANK3 = target: T12, YANK3 (Homo sapiens, UniProt Q86UX6); conditions: n=1, read-out: Percent inhibition, YANK3
T12 construct: purchased DiscoverX (KINOMEscan)

YES = target: T13, YES (Homo sapiens, UniProt P07947); conditions: n=1, read-out: Percent inhibition, YES
T13 construct: purchased DiscoverX (KINOMEscan)
T13 sequence (P07947 whole entry): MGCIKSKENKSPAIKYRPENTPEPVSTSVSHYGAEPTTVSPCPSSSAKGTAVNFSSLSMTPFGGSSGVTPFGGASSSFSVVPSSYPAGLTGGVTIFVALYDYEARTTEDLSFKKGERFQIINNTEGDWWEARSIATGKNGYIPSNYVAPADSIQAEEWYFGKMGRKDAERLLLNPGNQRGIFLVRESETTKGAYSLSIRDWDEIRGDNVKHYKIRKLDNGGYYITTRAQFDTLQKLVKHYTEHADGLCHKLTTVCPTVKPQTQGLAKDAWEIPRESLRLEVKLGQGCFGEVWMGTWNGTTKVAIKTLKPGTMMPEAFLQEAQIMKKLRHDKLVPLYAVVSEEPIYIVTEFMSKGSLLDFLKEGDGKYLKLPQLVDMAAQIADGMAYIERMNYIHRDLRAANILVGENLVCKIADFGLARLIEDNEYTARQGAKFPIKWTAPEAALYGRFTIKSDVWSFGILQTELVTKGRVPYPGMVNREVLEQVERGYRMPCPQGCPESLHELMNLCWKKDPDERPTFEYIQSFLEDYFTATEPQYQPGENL

ZAP70 = target: T14, ZAP70 (Homo sapiens, UniProt P43403); conditions: n=1, read-out: Percent inhibition, ZAP70
T14 construct: purchased DiscoverX (KINOMEscan)
T14 sequence (P43403 1-619): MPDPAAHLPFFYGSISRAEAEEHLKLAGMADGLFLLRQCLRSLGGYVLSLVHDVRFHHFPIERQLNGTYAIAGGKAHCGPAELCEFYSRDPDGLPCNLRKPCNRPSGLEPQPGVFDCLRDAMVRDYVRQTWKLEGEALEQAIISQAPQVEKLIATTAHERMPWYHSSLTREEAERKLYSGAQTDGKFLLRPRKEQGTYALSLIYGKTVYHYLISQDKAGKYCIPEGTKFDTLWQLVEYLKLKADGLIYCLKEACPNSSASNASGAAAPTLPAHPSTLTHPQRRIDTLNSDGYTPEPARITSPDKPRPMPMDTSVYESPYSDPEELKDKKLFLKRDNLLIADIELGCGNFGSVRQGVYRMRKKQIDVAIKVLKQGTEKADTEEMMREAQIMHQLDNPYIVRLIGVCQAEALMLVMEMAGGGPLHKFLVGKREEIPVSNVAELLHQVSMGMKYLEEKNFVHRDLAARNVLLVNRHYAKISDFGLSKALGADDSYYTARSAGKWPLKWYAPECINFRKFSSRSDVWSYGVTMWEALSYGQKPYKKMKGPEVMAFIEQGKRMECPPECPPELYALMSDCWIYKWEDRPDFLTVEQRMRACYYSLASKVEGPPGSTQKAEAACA

CN1CCN(c2ccc(Nc3nccc(-c4cnn5ncccc45)n3)cc2C#N)CC1 [Compound 1]
inhibition at 10 µM (PAK4): 95.7% | inhibition at 10 µM (PDPK1): 0% | inhibition at 10 µM (PRKCH): 83.4% | inhibition at 10 µM (SLK): 98.1% | inhibition at 10 µM (SNF1LK2): 69.9% | inhibition at 10 µM (STK16): 100% | inhibition at 10 µM (STK33): 98.1% | inhibition at 10 µM (SYK): 78.3% | inhibition at 10 µM (TLK1): 99.2% | inhibition at 10 µM (TLK2): 98.7% | inhibition at 10 µM (TRKC): 82.8% | inhibition at 10 µM (YANK3): 0% | inhibition at 10 µM (YES): 92.8% | inhibition at 10 µM (ZAP70): 0%

COc1ccc(Nc2nccc(-c3cnn4ncccc34)n2)cc1 [Compound 2]
inhibition at 10 µM (PAK4): 0% | inhibition at 10 µM (PDPK1): 0% | inhibition at 10 µM (PRKCH): 0% | inhibition at 10 µM (SLK): 77.9% | inhibition at 10 µM (SNF1LK2): 0% | inhibition at 10 µM (STK16): 99.7% | inhibition at 10 µM (STK33): 68.9% | inhibition at 10 µM (SYK): 80.9% | inhibition at 10 µM (TLK1): 0% | inhibition at 10 µM (TLK2): 0% | inhibition at 10 µM (TRKC): 0% | inhibition at 10 µM (YANK3): 0% | inhibition at 10 µM (YES): 0% | inhibition at 10 µM (ZAP70): 0%

Cc1ccc(O)cc1Nc1ccnc(Nc2cccc(C(N)=O)c2)n1 [Compound 3]
inhibition at 10 µM (PAK4): 0% | inhibition at 10 µM (PDPK1): 0% | inhibition at 10 µM (PRKCH): 0% | inhibition at 10 µM (SLK): 83.5% | inhibition at 10 µM (SNF1LK2): 96.7% | inhibition at 10 µM (STK16): 99.9% | inhibition at 10 µM (STK33): 89.1% | inhibition at 10 µM (TLK1): 0% | inhibition at 10 µM (TLK2): 0% | inhibition at 10 µM (TRKC): 0% | inhibition at 10 µM (YANK3): 0% | inhibition at 10 µM (YES): 100% | inhibition at 10 µM (ZAP70): 0%

Cc1ccc(O)cc1N(C)c1ccnc(Nc2cccc(S(N)(=O)=O)c2)n1 [Compound 4]
inhibition at 10 µM (PAK4): 0% | inhibition at 10 µM (PDPK1): 0% | inhibition at 10 µM (PRKCH): 0% | inhibition at 10 µM (SLK): 99.5% | inhibition at 10 µM (SNF1LK2): 95.1% | inhibition at 10 µM (STK16): 99.8% | inhibition at 10 µM (STK33): 85.7% | inhibition at 10 µM (SYK): 98.7% | inhibition at 10 µM (TLK1): 0% | inhibition at 10 µM (TLK2): 0% | inhibition at 10 µM (TRKC): 90% | inhibition at 10 µM (YANK3): 78.6% | inhibition at 10 µM (YES): 100% | inhibition at 10 µM (ZAP70): 0%

Fc1cccc(COc2ccc(Nc3ncnc4c3CN(CCN3CCOCC3)CC4)cc2Cl)c1 [Compound 6]
inhibition at 10 µM (PAK4): 0% | inhibition at 10 µM (PDPK1): 0% | inhibition at 10 µM (PRKCH): 0% | inhibition at 10 µM (SLK): 0% | inhibition at 10 µM (SNF1LK2): 0% | inhibition at 10 µM (STK16): 0% | inhibition at 10 µM (STK33): 0% | inhibition at 10 µM (SYK): 0% | inhibition at 10 µM (TLK1): 0% | inhibition at 10 µM (TLK2): 0% | inhibition at 10 µM (TRKC): 0% | inhibition at 10 µM (YANK3): 0% | inhibition at 10 µM (YES): 0% | inhibition at 10 µM (ZAP70): 0%
